Laboratory results reported in patent US6642392B1 (priority 1997, dated 2003).
Read-outs that look alike come from different tables or passages of the source.

Experiments:
Type in all cases: in vivo
Botrytis cinerea = test: Test E: gray mold, preventive spray on cucumber seedlings; conditions: for Test E disease control rating: gray mold on cucumber; for Test E disease control rating (100 = 100% disease control, 0 = no disease control): cucumber seedlings sprayed to run-off, inoculated the following day, rating relative to controls, unmarked compounds (standard test rate)
Outline: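 Preventive spray on cucumber seedlings used a suspension (3% acetone, 250 ppm Trem 014), applied to run-off one day before inoculation with Botrytis cinerea spores. Plants were held 48 h at 20° C in saturated air, then 5 days at 20° C. Percent disease control was scored relative to untreated plants.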

Pyricularia oryzae = conditions: for Test C disease control rating: rice blast; for Test C disease control rating (100 = 100% disease control, 0 = no disease control): rice seedlings sprayed to run-off, inoculated the following day, rating relative to controls, unmarked compounds (standard test rate)
[1] = tested on: Eiysiphe graminis f. sp. tritici; test: Test A: wheat powdery mildew, preventive spray on wheat seedlings; conditions: for Test A disease control rating: wheat powdery mildew; for Test A disease control rating (100 = 100% disease control, 0 = no disease control): wheat seedlings sprayed to run-off, inoculated the following day, rating relative to controls, unmarked compounds (standard test rate)
Outline: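 Preventive test: seedlings inoculated with powdery mildew spores one day after run-off spraying of a suspension. Ratings after 7 days in a 20° C growth chamber express percent disease control versus controls.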

Phytophthora infestans = conditions: for Test D disease control rating: tomato late blight; for Test D disease control rating (100 = 100% disease control, 0 = no disease control): tomato seedlings sprayed to run-off, inoculated the following day, rating relative to controls, unmarked compounds (standard test rate)
Puccinia recondita = test: Test B: wheat leaf rust, preventive spray on wheat seedlings; conditions: for Test B disease control rating: wheat leaf rust; for Test B disease control rating (100 = 100% disease control, 0 = no disease control): wheat seedlings sprayed to run-off, inoculated the following day, rating relative to controls, unmarked compounds (standard test rate)
Outline: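 Preventive test: P. recondita spores were applied one day after a run-off spray of compound suspension on wheat seedlings. Plants had 24 h at 20 °C in saturated air plus 6 days in a 20 °C growth chamber. Scoring is % disease control (100 = full) relative to controls.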

[2] = 100 = 100% disease control, 0 = no control, unmarked entries (standard test concentration)
[3] = 100 = 100% disease control, 0 = no control relative to controls, unmarked entries (standard test concentration)

| SMILES | Test E disease control rating (Botrytis cinerea; [2]) | Test C disease control rating (Pyricularia oryzae; [2]) | Test A disease control rating [1, 3] | Test D disease control rating (Phytophthora infestans; [2]) | Test B disease control rating (Puccinia recondita; [2]) | further results |
| --- | --- | --- | --- | --- | --- | --- |
| CC(COn1c(Cl)c(Cl)c(Cl)c1C#N)NC(=O)C(C#N)C(C)(C)C (mixture of isomers) [compound 52] | 0% | 0% | 71% | 81% | 86% | – |
| CC(COc1cc(F)ccc1C#N)NC(=O)C(C#N)C(C)(C)C (mixture of isomers) [compound 41] | 47% | 97% | 62% | 66% | 0% | – |
| CC(COc1c(Cl)cccc1C#N)NC(=O)C(C#N)C(C)C(C)(C)C (mixture of isomers) [compound 281] | – | – | – | – | – | Test E disease control rating (100 = 100% disease control, 0 = no disease control) (Botrytis cinerea): 0%; Test C disease control rating (100 = 100% disease control, 0 = no disease control) (Pyricularia oryzae): 53%; Test A disease control rating (100 = 100% disease control, 0 = no disease control) [1]: 56%; Test D disease control rating (100 = 100% disease control, 0 = no disease control) (Phytophthora infestans): 0%; Test B disease control rating (100 = 100% disease control, 0 = no disease control) (Puccinia recondita): 0% |
| CCC1(C(=O)NC(C)COc2cccc(Cl)c2C#N)C(C)C1(Cl)Cl (mixture of isomers) [compound 131] | 0% | 53% | 0% | 52% | 0% | – |
| C[C@H](COc1ccc(F)c(Cl)c1)NC(=O)C(C#N)C(C)(C)C (single isomer, unassigned) [183b] | 69% | 94% | 86% | 35% | 28% | – |
| C[C@H](COc1cc(Cl)c(Cl)cc1Cl)NC(=O)C(C#N)C(C)(C)C (single isomer, unassigned) [174b] | 0% | 52% | 0% | 91% | 28% | – |
| CC(COc1cccc(F)c1C#N)NC(=O)C(C#N)C(C)(C)C (mixture of isomers) [compound 39] | 0% | 86% | 0% | 2% | 0% | – |
| CCC1(C(=O)NC(C)COn2c(C#N)cc(Cl)c2C)C(C)C1(Cl)Cl (mixture of isomers) [140a] | 0% | 90% | 29% | 0% | 0% | – |
| C[C@H](COc1ccc(Cl)cc1Cl)NC(=O)C(C#N)C(C)(C)C (single isomer, unassigned) [32b] | 0% | 94% | 0% | 23% | 27% | – |
| CC(COc1c(C#N)cccc1C(F)F)NC(=O)C(C#N)C(C)(C)C (mixture of isomers) [compound 206] | 0% | 74% | 0% | 0% | 0% | – |
| C=CC(C)(CC)C(C#N)C(=O)NC(C)COc1cc(Cl)ccc1F (mixture of isomers) [compound 297] | – | – | – | – | – | Test E disease control rating (100 = 100% disease control, 0 = no disease control) (Botrytis cinerea): 0%; Test C disease control rating (100 = 100% disease control, 0 = no disease control) (Pyricularia oryzae): 100%; Test A disease control rating (100 = 100% disease control, 0 = no disease control) [1]: 0%; Test D disease control rating (100 = 100% disease control, 0 = no disease control) (Phytophthora infestans): 46%; Test B disease control rating (100 = 100% disease control, 0 = no disease control) (Puccinia recondita): 0% |
| C[C@H](COc1ccccc1F)NC(=O)C(C#N)C(C)(C)C (single isomer, unassigned) [2b] | 0% | 100% | 0% | 0% | 0% | – |
| C[C@H](COc1cc(F)c(F)cc1F)NC(=O)C(C#N)C(C)(C)C (single isomer, unassigned) [188b] | 45% | 100% | 0% | 35% | 0% | – |
| CC(C)(C)C(C#N)C(=O)NC/C=C/c1ccccc1 (racemic) [compound 167] | 0% | 74% | 0% | 23% | 0% | – |
| C=CC(C)(C)C(C#N)C(=O)N[C@H](C)COc1cc(F)ccc1Cl (single isomer, unassigned) [192b] | 0% | 100% | 0% | 0% | 0% | – |
| C[C@H](COc1c(F)cc(F)cc1F)NC(=O)C(C#N)C(C)(C)C (single isomer, unassigned) [189a] | 6% | 97% | 0% | 0% | 0% | – |
| CC(C=Cc1ccccc1C#N)NC(=O)C(C#N)C(C)(C)C (mixture of isomers) [compound 307] | – | – | – | – | – | Test E disease control rating (100 = 100% disease control, 0 = no disease control) (Botrytis cinerea): 0%; Test C disease control rating (100 = 100% disease control, 0 = no disease control) (Pyricularia oryzae): 94%; Test A disease control rating (100 = 100% disease control, 0 = no disease control) [1]: 36%; Test D disease control rating (100 = 100% disease control, 0 = no disease control) (Phytophthora infestans): 0%; Test B disease control rating (100 = 100% disease control, 0 = no disease control) (Puccinia recondita): 0% |
| Cc1cccc(OCC(C)NC(=O)C(C#N)C(C)(C)C)c1 (mixture of isomers) [compound 176] | 6% | 94% | 77% | 56% | 0% | – |
| CC(COc1cccc(Cl)c1)NC(=O)C(C#N)C(C)(C)C (single isomer, unassigned) [6c] | 0% | 97% | 0% | 9% | 0% | – |
| CCC1(C(=O)NC(C)COc2ccccc2CF)C(C)C1(Cl)Cl (mixture of isomers) [compound 92] | – | – | – | – | – | Test E disease control rating (Botrytis cinerea; tested at 40 ppm): 0%; Test C disease control rating (Pyricularia oryzae; tested at 40 ppm): 0%; Test A disease control rating ([1]; tested at 40 ppm): 60%; Test D disease control rating (Phytophthora infestans; tested at 40 ppm): 0%; Test B disease control rating (Puccinia recondita; tested at 40 ppm): 0% |
| CC(COc1cc(F)ccc1OC(F)F)NC(=O)C(C#N)C(C)(C)C (mixture of isomers) [compound 292] | – | – | – | – | – | Test E disease control rating (100 = 100% disease control, 0 = no disease control) (Botrytis cinerea): 0%; Test C disease control rating (100 = 100% disease control, 0 = no disease control) (Pyricularia oryzae): 99%; Test A disease control rating (100 = 100% disease control, 0 = no disease control) [1]: 0%; Test D disease control rating (100 = 100% disease control, 0 = no disease control) (Phytophthora infestans): 46%; Test B disease control rating (100 = 100% disease control, 0 = no disease control) (Puccinia recondita): 0% |
| CCC1(C(=O)NC(C)COc2ccccc2C#N)C(C)C1(Cl)Cl (mixture of isomers) [89a] | 0% | 74% | 0% | 20% | 0% | – |
| CCC1(C(=O)NCCCn2c(C)cc(C)c2C#N)C(C)C1(Cl)Cl (stereo not shown) [compound 150] | 87% | 60% | 0% | 0% | 0% | – |
